Measured values: US5958770A, “Glycoalkaloids” (priority 1990, dated 1999)
“Also recorded” adds a separate entry of the source. Like-named read-outs stand apart in the source and are kept apart here.

Assays:
ovarian cancer cells [1] = assay: Inhibition of tritiated thymidine uptake, ovarian cancer cells
Method: (§1) The inhibition of cell replication by steroid alkaloids is determined by the inhibition of the incorporation of ^3 H thymidine into DNA. Using this technique, it should be possible to monitor any preferential inhibition of uptake of ^3 H thymidine by cancer cells.
(§2) Cells were maintained as monolayers in RPM1-1640 tissue culture media (Grant Island Biological Co) buffered with N-2-hydroxy-ethylpiperazine-N-2-ethanesulphonic acid pH 7.5 and supplemented with 10% heat inactivated fetal calf serum (FCS): (i) a human ovarian cancer cell line (C180-135), (ii) HeLa cells, (iii) human fibroblasts, and (iv) as a cell suspension of lymphoblastoid cells (EBV transformed lymphocytes). Monolayers were trypsinized to form a cell suspension. […] Cell concentration was adjusted to 2×10^5 cells/ml, and 2×10^4 cells were added in replicates of 10 to the wells (1×10^5 /ml well) of HA microtitre plates (Millipore Corp., USA). The cells were preincubated at 37.5° C. for 7 hours prior to the addition of 50 μl of the cytotoxic drug followed by the addition of 50 μl 5 uCi/ml of ^3 H thymidine, in the same tissue culture media 21 hours later. Incubation was continued for a total of 24 hours, which includes the pre-incubation time.
(§3) Appropriate DMSO cytotoxicity studies were also conducted. Solasodine glycosides were supplied as a mixture (BEC), and as separate components, solamargine, solasonine, a mixture of di- and mono-glycosides and the aglycone solasodine. All cytotoxic drugs were further diluted with HIFCS/TCM before testing. 5×10^4 ovarian cancer cells (200 μl/chamber of a chamber of microscope slide (Lab Tek Miles Scientific) were used. Controls received 50 μl HIFCS/TCM and experimental chambers 50 μl of solasodine glycosides (BEC) 1.5-3.8 μM/L after 7 hrs preincubation, and incubated for a further 3 hrs. Similarly, the cells were treated with the aglycone solasodine 19.4-96.8 μM/L. The cells were fixed and examined by the Papanicolaou method.

HeLa cells [2] = assay: cells
Method: as §1, §2, §3

human fibroblasts = assay: cells; conditions: for TR50 (thymidine ratio relative to ovarian cancer cells): FB / OvCa
Method: as §1, §2, §3

[3] = tested on: lymphoblastoid cells (EBV transformed lymphocytes); assay: cells; conditions: for TR50 (thymidine ratio relative to ovarian cancer cells): LCL / OvCa
Method: as §1, §2, §3

ovarian cancer cells [4] = assay: Solamargine cytotoxicity in presence and absence of carbohydrates, ovarian cancer cells; format: cell-based, human; conditions: Homo sapiens, OvCa, solamargine 1.54 μM/L, read-out: Percentage Survival
Method: (§4) A mixture of solasodine glycosides (BEC), of which the active compound is solamargine and from which the aglycone solasodine is derived was prepared for use in cytotoxicity assays as determined by the uptake of tritiated thymidine. Inhibition studies were carried out with lactose, lactosyl-albumin, galactose or rhamnose (Sigma Chemical Co., USA). All experimental replicates were related to their own controls. Total volume of replicates was 250 μl (carbohydrates added in 50 μl tissue culture media+10% fetal calf serum), and the cell concentrations were 8×10^4 /ml.

HeLa cells [5] = assay: Solamargine cytotoxicity in presence and absence of carbohydrates, HeLa cells; format: cell-based, human; conditions: Homo sapiens, HeLa, solamargine 2.4 μM/L, read-out: Percentage Survival
Method: as §4

lymphoblastoid cells = assay: Solamargine cytotoxicity in presence and absence of carbohydrates, lymphoblastoid cells; format: cell-based; conditions: Homo sapiens, Lymphoblastoid cell, LCL, solamargine 3.1 μM/L, read-out: Percentage Survival
Method: as §4

ovarian cancer cells [6] = assay: Morphological examination of ovarian cancer cells (Papanicolaou); format: cell-based, human; conditions: 17 hours; FIG. 4B
Method: Appropriate DMSO cytotoxicity studies were also conducted.
A human ovarian cancer cell line (C180-135) was grown as mono layers and trypsinized to form a cell suspension. The cells were adjusted to a concentration of 1×10^5 /ml (viability ≥95%) and 200 μl placed in each of the eight chambers of microscope chamber slides (Lab Tek, Miles Scientific). After 21 hours preincubation at 37.5° C., 50 μl of supplemented tissue culture media were added to the control chambers. To the other chambers were added 50 μl of solasodine glycosides (BEC) to give final concentrations of 3, 4.8, 6.7, 7.7, 9.6, 11.1 and 15.3 μM/L. Similarly, to a separate chamber slide was added the aglycone solasodine (19.4-96.8 μM/L). The slides were incubated at 37.5° C. for a further 3 hours, and the cells fixed in 95% V/V alcohol and stained by the Papanicolaou method. Two other chamber slides were prepared in a similar manner, but the solasodine glycosides and the aglycone were added at a final concentration of 0.77, 1.5, 2.3, 3.1 and 3.8 μM/L after 7 hours preincubation, and they incubated for a further 17 hours.

[7] = tested on: ovarian cancer cells, HeLa cells, lymphoblastoid cells, fibroblasts; assay: Cytotoxicity / inhibition of tritiated thymidine uptake, cell types taken together
Method: as §1, §2, §3

in vitro [8] = conditions: human, unstimulated lymphocytes
Method: (§5) This was cultured for 48 hours and pulsed with tritiated thymidine for a further 24 hours. In the inhibition studies, the cell concentration was 8×10^5 /ml.
(§6) All cells were harvested by vacuum filtration by washing in 250 μl of each of phosphate buffered saline, 5% trichloroacetic acid, 1.0M NaCl and 95% ethanol and subjected to β-scintillatian counting. Similarly, peripheral human blood lymphocytes were isolated and cultured 2×10^5 lymphocytes in CO2 1640TCM 10% HIFCS. Lymphocytes were stimulated with 20 μg/ml PHA, Con A or PWM, and cultured for 48 hrs followed by a 24 hr pulse. […] Cell concentrations were 8×10^4 /well total volume 250 μl. The dpm of the experimental replicates were expressed as a percentage of the mean value of the controls, and the mean value of the experimental replicates calculated.

in vitro [9] = conditions: human, pha stimulated lymphocytes
Method: as §5, §6

in vitro [10] = conditions: human, con a stimulated lymphocytes
Method: as §5, §6

in vitro [11] = conditions: human, pwm stimulated lymphocytes
Method: as §5, §6

unstimulated lymphocytes = assay: Inhibition of tritiated thymidine uptake, unstimulated lymphocytes; conditions: unstimulated lymphocytes
Method: as §5, §6

[12] = tested on: PHA stimulated lymphocytes; assay: Inhibition of tritiated thymidine uptake, PHA stimulated lymphocytes; conditions: PHA stimulated lymphocytes
Method: as §5, §6

[13] = tested on: PWM stimulated lymphocytes; assay: Inhibition of tritiated thymidine uptake, PWM stimulated lymphocytes; conditions: PWM stimulated lymphocytes
Method: as §5, §6

[14] = tested on: Con A stimulated lymphocytes; assay: Inhibition of tritiated thymidine uptake, Con A stimulated lymphocytes; conditions: Con A stimulated lymphocytes
Method: as §5, §6

For `C[C@@H]1CC[C@@]2(NC1)O[C@H]1C[C@H]3[C@@H]4CC=C5C[C@@H](O[C@@H]6O[C@H](CO)[C@@H](O[C@@H]7O[C@@H](C)[C@H](O)[C@@H](O)[C@H]7O)[C@H](O)[C@H]6O[C@@H]6O[C@@H](C)[C@H](O)[C@@H](O)[C@H]6O)CC[C@]5(C)[C@H]4CC[C@]3(C)[C@H]1[C@@H]2C` [Solamargine, solamargine], the IC50 (ovarian cancer cells [1]; Homo sapiens, read-out: LD50 (dose to inhibit 50% tritiated thymidine uptake)) was 1.55 µM, the viability at 11.5 µM (ovarian cancer cells [1]; Homo sapiens, read-out: Percentage Cell Survival) was 7 ± 0.8% and the “LD50 of solamargine less than that of vinblastine, chlorambucil or cis-platinum” value (ovarian cancer cells [1]; ovarian cancer cells, fold lower) was 6-40 times. For the same compound, the “TR50 (thymidine ratio relative to ovarian cancer cells)” value (HeLa cells [2]; HeLa / OvCa) was 1.6, the IC50 (HeLa cells [2]; Homo sapiens, HeLa, read-out: LD50 (dose to inhibit 50% tritiated thymidine uptake)) was 2.5 µM and the viability at 11.5 µM (HeLa cells [2]; Homo sapiens, HeLa, read-out: Percentage Cell Survival) was 2.6 ± 0.5%. The “TR50 (thymidine ratio relative to ovarian cancer cells)” value (human fibroblasts; listed as Solam) was 2.3, the “TR50 (thymidine ratio relative to ovarian cancer cells)” value (human fibroblasts; listed as solamargine) was “greater than 2” and the IC50 (human fibroblasts; Homo sapiens, Fibroblast, read-out: LD50 (dose to inhibit 50% tritiated thymidine uptake)) was 3.65 µM. The viability at 11.5 µM (human fibroblasts; Homo sapiens, Fibroblast, read-out: Percentage Cell Survival) was 23 ± 1.7%, the viability at 11.5 µM ([3]; Homo sapiens, Lymphoblastoid cell, read-out: Percentage Cell Survival) was 35 ± 4.2% and the “TR50 (thymidine ratio relative to ovarian cancer cells)” value ([3]; listed as Solam) was 2.5. For the same compound, the “TR50 (thymidine ratio relative to ovarian cancer cells)” value ([3]; listed as solamargine) was “greater than 2”, the IC50 ([3]; human gammaherpesvirus 4, LCL, read-out: LD50 (dose to inhibit 50% tritiated thymidine uptake)) was 3.95 µM and the viability at 1.54 µM (ovarian cancer cells [4]; 1.1 μM/L galactose, ** p = 0.001) was 79%. It also gave a viability at 1.54 µM (ovarian cancer cells [4]; 1.1 μM/L lactose, * p < 0.02 > 0.01) of 75%, a viability at 1.54 µM (ovarian cancer cells [4]; 1.1 μM/L rhamnose) of 67 ± 7.5% and a viability at 1.54 µM (ovarian cancer cells [4]; no carbohydrate) of 62 ± 7%. For the same compound, the viability at 2.4 µM (HeLa cells [5]; 1.1 μM/L galactose) was 24 ± 2.2%, the viability at 2.4 µM (HeLa cells [5]; 1.1 μM/L lactose) was 24 ± 2.9% and the viability at 2.4 µM (HeLa cells [5]; 1.1 μM/L rhamnose) was 26 ± 2.1%. For the same compound, the viability at 2.4 µM (HeLa cells [5]; no carbohydrate (first line)) was 25 ± 2.6%, the viability at 2.4 µM (HeLa cells [5]; no carbohydrate (second line, with rhamnose)) was 24 ± 4% and the viability at 3.1 µM (lymphoblastoid cells; 1.1 μM/L galactose, *** p < 0.001) was 42%. The viability at 3.1 µM (lymphoblastoid cells; 1.1 μM/L lactose, *** p < 0.001) was 47%, the viability at 3.1 µM (lymphoblastoid cells; 1.1 μM/L rhamnose) was 36 ± 4.5% and the viability at 3.1 µM (lymphoblastoid cells; no carbohydrate) was 34 ± 3%. For the same compound, the “morphological effect on ovarian cancer cells” value (ovarian cancer cells [6]) was “absence of cancer cells upon cytological examination”, the “preferential cytotoxicity for cancer cells” value ([7]; cancer cells relative to other cell types) was “preferentially inhibits the uptake of tritiated thymidine by cancer cells” and the “LD50 for ovarian cancer cell line and HeLa cells less than that for lymphoblastoid cells and fibroblasts” value ([7]; fold lower) was 1.5-3.3 times. The viability at 11.5 µM (in vitro [8]) was 76 ± 9.6%, the viability at 11.5 µM (in vitro [9]) was 93 ± 4.4% and the viability at 11.5 µM (in vitro [10]) was 79 ± 4%. For the same compound, the viability at 11.5 µM (in vitro [11]) was 93 ± 9.4%, the “cytotoxicity (words)” value (unstimulated lymphocytes) was “limited effect; also recorded: limited cytotoxicity” and the “cytotoxicity (words)” value [12] was “absence of cytotoxicity”. The “cytotoxicity (words)” value [13] was “absence of cytotoxicity” and the “cytotoxicity (words)” value [14] was “limited effect; also recorded: limited cytotoxicity”.
